Measurements taken from patent US8742068B2, “Treatment and prevention of inflammatory diseases and autoimmune diseases” (Universiteit Utrecht Holding B.V., priority 2007, dated 2014).
“Also recorded” adds a separate entry of the source.

Tests used:
[1] = tested on: primed spleen and draining lymph node cells; assay: Peptide pool immunization, in vitro re-stimulation with individual peptides (T-cell proliferation, cytokine production, cross reactivity); format: cell-based, Balb/c mice
Text: To define the epitopes more precisely, we divided the 13 peptides, based on the degree of sequence identity between bacterial and the homologous mouse Hsp70s, in three pools (pool A: non-conserved peptides, pool B: conserved peptides comprising at least about 80% amino acid identity to the mouse homologue, and pool C: highly conserved peptides comprising >86% amino acid identity to the mouse homologue, see below) and immunized 10-12 weeks old Balb/c mice twice with a 2 week interval (intraperitoneally and subcutaneously) with the peptide pools. 10 days after the second immunization primed spleen and draining lymph node cells were re-stimulated in vitro with all the 13 individual peptides after which we measured T-cell proliferation (tritium incorporation), IFNγ, IL10, IL4 and IL5 production (cytokine production).
Cross reactivity was determined with the corresponding mouse homologue peptides.

[2] = tested on: proteoglycan induced arthritis; assay: Proteoglycan induced arthritis (PGIA), intranasal pre-treatment; format: in vivo, Balb/c mice; details: control pOva
Text: The proteoglycan induced arthritis model (PGIA) is a murine model of rheumatoid arthritis and is described to be a T-cell dependent and antibody mediated model. In the model arthritis is induced by two times injection of human proteoglycan (hPG) in a synthetic adjuvant dimethyldioctadecylammonium (DDA), see Hanyecz A. et al., Achievement of a synergistic adjuvant effect on arthritis induction by activation of innate immunity and forcing the immune response toward the Th1 phenotype. Arthritis Rheum. 2004 50(5):1665-76.
Because arthritis is induced by immunization with a synthetic adjuvant, instead of complete Freund's adjuvant (CFA), the role of interfering immune responses, induced by microbial Hsp's present in CFA, can be excluded. Due to cross reactive responses, between the human and the mouse (self) PG, a chronic and relapsing arthritis develops. After disease development, arthritis severity is scored by clinical assessment of thickness, redness and deformation of the joints on a scale of 1-4 per paw.
Ten female Balb/c mice, retired breeders obtained from Charles River, were randomly divided in two groups. To evaluate the effect of intra nasal treatment with Mycobacterial HSP70 (SEQ ID NO: 55) on PGIA 30 μg Hsp70 in 10 μl PBS was administered on day −7, −5 and −3 before disease induction. PGIA was induced by two times i.p. injection with 400 μg hPG and 2 mg DDA in 200 μl PBS. Subsequently developed arthritis scores were assessed by clinical evaluation as described in Example 7.
Fifteen female Balb/c mice, retired breeders obtained from Charles River, were randomly divided in three groups (five mice per group). To evaluate the effect of intranasal treatment with Hsp70-derived peptides “B1” (SEQ ID NO: 1) and a mixture of C1 (SEQ ID NO: 3) and mC1a (SEQ ID NO: 4) (designated herein as “C1mix”) on PGIA 100 μg peptide in 10 μl PBS was administered on day −7, −5 and −3 before disease induction. Ovalbumin peptide 323-339 (pOva) was used as a control peptide. PGIA was induced by two times i.p. injection with 400 μg hPG and 2 mg DDA in 200 μl PBS. Subsequently developed arthritis scores were assessed by clinical evaluation.
Twelve female Balb/c mice, retired breeders obtained from Charles River, were randomly divided in two groups (six mice per group). To evaluate the effect of intra nasal treatment with Hsp70 derived mC1 a on PGIA 100 μg peptide in 10 μl PBS was administered on day −14, −11, −7 and −4 before disease induction. Ovalbumin peptide (pOva) was used as a control peptide. PGIA was induced by two times i.p. injection with 400 μg hPG and 2 mg DDA in 200 μl PBS. Subsequently developed arthritis scores were assessed by clinical evaluation.
Eighteen female Balb/c mice, retired breeders obtained from Charles River, were randomly divided in three groups (six mice per group). To evaluate the effect of intranasal (i.n.) treatment with Hsp70 derived peptides C1 and its mouse homologue mC1a on PGIA 100 μg peptide in 10 μl PBS was administered on day −7, −5 and −3 before disease induction (see FIG. 28). Ovalbumin peptide (pOva) was used as a control peptide. PGIA was induced by two times i.p. injection with 300 μg hPG and 2 mg DDA in 200 μl PBS. Subsequently developed arthritis scores were assessed by clinical evaluation. • Group A: (pOva): Treated with 100 μg pOva in 10 μl PBS intranasally • Group B (C1): Treated with 100 μg C1 in 10 μl PBS intranasally • Group C (mC1a): Treated with 100 μg mC1a in 10 μl PBS intranasally

[3] = tested on: synovial fluid mononuclear cells (SFMC); assay: Peptide-specific response of SFMC (intracellular staining and FACS); format: cell-based, human; details: eight days culture with peptide, 6 hour restimulation
Method: Peptide-specific response of SFMC was measured by intracellular staining and FACS analysis. Therefore, cells were cultured in the presence of the peptide as described for PBMC. After 96 hours 100 μl of the medium was replaced by fresh culture medium and 40 IU/ml IL-2 was added. At day eight, cells were spun down, medium was aspirated and 200 μl new medium with fresh irradiated APC of the same donor was added (7.5*10^5 irradiated at 3500 rad) During 6 hours cells were cultured with or without the peptides and addition of the costimulatory mAbs CD28 and CD49 (0.5 μg/ml each) at 37° C. In the last 4 hours Golgistop (BD Biosciences) was added. Harvested cells were washed and surface stained as described previously […] with anti-CD3-Peridinin-chlorophyll-protein Complex (PerCP), anti-CD4-allophycocyanin (APC) and anti-CD69-fluorescein isothiocyanate (FITC) and subsequently fixed in Cytofix/cytoperm solution (BD Biosciences) followed by intracellular staining with phycoerythrin (PE) conjugated mAbs against either IL-10, IFNγ or TNFα. All antibodies were obtained from Becton Dickinson. Data are expressed as % positive cells of the CD3^+CD4^+ population.

[4] = tested on: PBMC isolated from the blood of healthy donors; assay: Peptide-specific proliferation of human PBMC; format: cell-based; details: peptides at 20 μg/ml for 96 hours; compared to A5 control peptide
Text: Peptide specific responses were studied in mononuclear cells obtained from the blood of healthy controls or the synovial fluid of a JIA and a RA patient. The patients were visiting the outpatient clinic of the departments of Rheumatology & Clinical Immunology and Pediatrics of the University Medical Center Utrecht (Utrecht, The Netherlands). The RA patient fulfilled diagnostic criteria of the American College of Rheumatology criteria for RA […]. Cells were isolated by ficoll (Pharmacia, Uppsala, Sweden) density gradient centrifugation of heparinized blood or synovial fluid and cultured in RPMI 1640 supplemented with 2 mmol/L glutamine, 100 U/ml penicillin and streptomycin (Gibco BRL, Gaithersburg, Md. USA) and 10% AB-positive heat-inactivated human serum (Sanquin Blood Bank, Utrecht, the Netherlands) in 96 wells round bottom plates (Nunc, Roskilde, Denmark) at 2*10^5 cells in 200 μl per well. Cultures were in triplicate stimulated with peptides at 20 μg/ml for 96 hours at 37° C. in 5% CO2 with 100% relative humidity. For determination of peptide-specific proliferation of PBMC, during the last 16 hours 1 μC1 (37 kBq) [^3H]-thymidine was added to each well and incorporation was measured. Data are expressed as stimulation index calculated as mean CPM of cells cultured with peptide divided by mean CPM of cells cultured without peptide.

[5] = tested on: adjuvant arthritis; details: in vivo; cited from earlier work
[6] = tested on: arthritis; details: cited from earlier work
[7] = Example 11: 100 μg intranasally on day −7, −5 and −3

## DEVVAVGAALQAGVL (listed as Mycobacterium tuberculosis) [B1, pool B (conserved)]
[1]
  Cross-reactivity of bacterially primed T-cells with mouse homologue peptide: induced cross reactive T cell responses and yes
[2]; Example 9: 100 μg intranasally on day −7, −5 and −3
  disease severity (arthritis score): reduction of disease severity

## KPFQSVIADTGISVS (listed as Mycobacterium tuberculosis) [A1, pool A (not conserved)]
[1]
  Cross-reactivity of bacterially primed T-cells with mouse homologue peptide: no

## VLRIINEPTAAAIAY (listed as Mus musculus) [mC1b, mouse hsp70 (hspa1a/hspa8) peptide, mouse homologue of C1]
[3]
  production of IL-10, IFNγ and TNFα in the CD3+CD4+ population: increased the production of IL-10, IFNγ and TNFα
  surface expression of CD69 in the CD3+CD4+ population: increased
[4]
  peptide-specific proliferation (stimulation index, [3H] thymidine incorporation): increased proliferation of PBMC; also recorded: significantly increased the proliferation

## VLRIVNEPTAAALAY (listed as Mycobacterium tuberculosis) [C1]
[3]
  production of IL-10, IFNγ and TNFα in the CD3+CD4+ population: increased CD69 and cytokine expression
  surface expression of CD69 in the CD3+CD4+ population: increased CD69 and cytokine expression
[1]
  Cross-reactivity of bacterially primed T-cells with mouse homologue peptide: induced cross reactive T cell responses and yes
[2]; [7]
  disease activity (arthritis score): significant reduction of disease activity

## VLRVINEPTAAALAY (listed as Mus musculus) [mC1a, mouse Grp75 (hspa9a) peptide 216-230, mouse homologue of C1]
[2]; Example 10: 100 μg intranasally on day −14, −11, −7 and −4
  disease activity (arthritis score): suppressed disease activity
[2]; [7]
  disease activity (arthritis score): significant reduction of disease activity

## amino acids 84-103: another peptide of Mycobacterial HSP70, amino acids 84-103 (Tanaka et al. 1999) (KKYTAPEISARILMKLKRDA; UniProt P9WMJ9 84-103, looked up, fragment)
[5]
  development of adjuvant arthritis: does not suppress adjuvant arthritis development

## peptide 111-125: synthetic 15-mer peptide of mycobacterial HSP70, amino acids 111-125 (Wendling et al. 2000) (ITDAVITTPAYFNDA; UniProt P9WMJ9 111-125, looked up, fragment)
[6]; nasal administration
  arthritis: significant reduction of arthritis
[6]; parenteral pre-immunization
  arthritis development: did not protect against arthritis development

## peptide 234-252: peptide 234-252 of Mycobacterial HSP70 (Tanaka et al. 1999) (LREAAEKAKIELSSSQSTS; UniProt P9WMJ9 234-252, looked up, fragment)
[5]
  IL-10 production: induces IL-10 production
  development of adjuvant arthritis: suppresses the development of adjuvant arthritis
